Experimental findings from ChEMBL document CHEMBL1201862, “PubChem BioAssay data set” (2004) are described below.

The test system of experiment [1] is BJ. The experiment in a line: BJ-TERT-LT-ST fibroblast viability loss – cell-based, RAS-independent, luminescence, dose response (AID 1935).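 Also: BJ fibroblasts immortalized with TERT plus LT and ST oncogenes.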 The format is functional. The following applies: Homo sapiens.
The nature of experiment [2]: alpha-synuclein stem-loop luciferase translation blockers – H4 neuroglioma cells, luminescence, confirmation (AID 1988). The class given is functional, cell-based.
Experiment [3] relates to BJ. The experiment in a line: BJ-TERT fibroblast viability loss – cell-based, RAS-independent, luminescence, dose response (AID 1933). The format is functional. Particulars: Homo sapiens.
Experiment [4] can be described thus: Luminescence Cell-Based Dose Response HTS to Identify Inhibitors of 5'UTR Stem-Loop Driven Prion Protein mRNA Translation in H4 Neuroglioblastoma Cells. [Related pubchem assays: 1827 (Project Summary), 1813 (Primary HTS)]. The format is functional.
A short description of experiment [5]: DRD fibroblast viability loss – cell-based, non-viral oncogenic, luminescence, dose response (AID 1934). The format is functional. The following applies: Homo sapiens.
For experiment [6], the system named is BJ. The experiment in a line: cells. The class given is functional, cell-based. Particulars: Homo sapiens.
The target of experiment [7] is T1, Heat shock factor protein 1 (Mus musculus, UniProt P38532).
T1 sequence (P38532 whole entry): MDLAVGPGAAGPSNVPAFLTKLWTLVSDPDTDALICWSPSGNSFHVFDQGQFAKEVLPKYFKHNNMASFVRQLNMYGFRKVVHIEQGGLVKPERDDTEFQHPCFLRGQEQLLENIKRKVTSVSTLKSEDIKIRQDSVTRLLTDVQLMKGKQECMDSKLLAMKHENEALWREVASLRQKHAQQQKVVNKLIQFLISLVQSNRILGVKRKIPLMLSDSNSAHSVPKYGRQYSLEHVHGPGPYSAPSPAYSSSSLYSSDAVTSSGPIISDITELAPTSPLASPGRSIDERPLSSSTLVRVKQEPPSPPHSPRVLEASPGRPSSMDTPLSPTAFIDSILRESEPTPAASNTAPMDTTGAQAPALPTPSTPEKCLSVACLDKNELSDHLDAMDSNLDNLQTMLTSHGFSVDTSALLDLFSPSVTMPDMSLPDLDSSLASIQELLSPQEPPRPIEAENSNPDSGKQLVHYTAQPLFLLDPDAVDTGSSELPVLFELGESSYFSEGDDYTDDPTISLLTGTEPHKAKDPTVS
The experiment in a line: enhancement of HSF1-driven luciferase signal – cell-based, NIH3T3, luminescence, dose retest, confirmation (AID 435004).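 Also: stress induced by proteasome inhibitor MG132 added 30 min after compound; luciferase reporter driven by HSF1 response element in NIH3T3 cells; actives raise luminescence as potentiators of the MG132 stress response.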 The class given is functional.

Experiment [8] is described as follows: luciferase reporter signal suppression in cells – H4 neuroglioma cells, luminescence, dose response (AID 1990). The format is functional, cell-based. A general note: A reporter such as luciferase makes a cellular process visible.
For experiment [9], the system named is BJ. The experiment in a line: growth inhibition of engineered Ras-driven BJ cells – cell-based, alamar blue fluorescence, cherrypicked samples, dose response (AID 2631).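 Also: confirmatory dose-response assay in RAS-dependent BJ fibroblasts engineered with TERT, LT and ST, with cytotoxicity read by fluorescence.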 The class given is functional. The following applies: Homo sapiens.

SMILES strings stand for the structures. Activity calls are given as the source filed them. Rule as the data show it: actives have a measured EC50 and inactives only a lower limit. Some results are limits rather than exact numbers.

For orientation: EC50 means the concentration giving half of the maximal effect. Regarding `O=C(NCc1ccccc1)c1c(Cl)nc(Cl)c(Cl)c1Cl`, the EC50 with BJ [1] was 7.26 µM (inconclusive); in experiment [2], > 120 µM (not active); with BJ [3], 6.46 µM (active); in experiment [4], > 120 µM (not active); in experiment [5], 9.83 µM (active); with BJ [6], 77.2 µM (inconclusive). Further, the EC50 in [7] was 57.8 µM (active); in experiment [8], 10.3 µM (active); with BJ [9], 3.69 µM (active).
